# Assay results published in patent US20160206608A1 (Pfizer Inc., priority 2011, published 2016).
# Key:
# [1] = tested on: 3T3-ROS engineered tumor models (CD74-ROS, SLC34A2-ROS (L), SLC34A2-ROS (S), FIG-ROS (L), FIG-ROS (S)); assay: Panel of ROS fusion engineered 3T3-ROS xenograft tumor models; settings: PO BID, all five models, nude mice
# HCC78 human NSCLC cells = assay: Western blot of cleaved caspase-3 (apoptosis) in HCC78 cells; settings: 3-hour drug treatment
# [2] = tested on: SLC34A2-ROS dependent signaling (ROS, SHP2, STAT3, AKT, ERK1/2) in HCC78 cells; assay: Immunoblot of ROS mediated signal transduction in HCC78 cells; settings: 3 hours of drug treatment
smiles,measurement,setting,value
"C[C@@H](Oc1cc(-c2cnn(C3CCNCC3)c2)cnc1N)c1c(Cl)ccc(F)c1Cl [crizotinib, 3-[(R)-1-(2,6-dichloro-3-fluoro-phenyl)-ethoxy]-5-(1-piperidin-4-yl-1H-pyrazol-4-yl)-pyridin-2-ylamine]",cytoreductive effect in 3T3-ROS engineered tumor models,[1],significant cytoreductive effects
same,induction of activated caspase-3 levels,HCC78 human NSCLC cells,significant dose-dependent induction
same,"inhibition of ROS phosphorylation (activation loop) and downstream SHP2, STAT3, AKT and ERK1/2",[2],dose dependently inhibited
